From article PMC8543760 (Cell chemical biology, 2018)

Target: cytoplasmic dynein 1 (Sus scrofa, UniProt A0A287B9W3)
Assay: microtubule-stimulated ATPase assay
Format: biochemical

`N#CC(=C(O)c1ccc(Cl)cc1Cl)c1nc2ccccc2c(=O)[nH]1` [Ciliobrevin A] was tested, and the IC50 was about 84 µM.
